ChEMBL document CHEMBL1201862, “PubChem BioAssay data set” (2004)
Activity calls are given as the source filed them.

How the values were obtained:
[1] = biological target: Heat shock protein HSP 90-alpha (Homo sapiens, UniProt P07900); format: functional, organism-based
Bcl-2-related protein A1 = biological target: T1, Bcl-2-related protein A1 (Mus musculus, UniProt Q07440); format: functional;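 also: confirmatory dose–response counterscreen on Bfl-1, used to check hits from a UBC13 polyubiquitin inhibitor campaign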
T1 sequence (Q07440 whole entry): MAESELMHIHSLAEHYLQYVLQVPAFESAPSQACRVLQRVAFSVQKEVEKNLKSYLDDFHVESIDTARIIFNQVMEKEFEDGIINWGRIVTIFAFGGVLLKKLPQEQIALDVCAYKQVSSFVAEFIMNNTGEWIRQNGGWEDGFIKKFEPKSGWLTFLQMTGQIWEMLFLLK

[2] = biological target: Glutathione-S-transferase (Schistosoma japonicum, UniProt Q26513); test: GST-antibody interaction or FRET quenching – biochemical, TR-FRET, artefact control for Vif-APOBEC3G degradation inhibitor project, dose response (AID 1117362); format: functional
[3] = biological target: Runt-related transcription factor 1/Core-binding factor subunit beta (Homo sapiens, UniProt Q01196+Q13951); test: Runt domain/CBFb-SMMHC interaction disruptors – biochemical, TR-FRET (AID 1438); format: protein assay
Chain of Runt-related transcription factor 1/Core-binding factor subunit beta (Q01196 whole entry, the tested form may be a part): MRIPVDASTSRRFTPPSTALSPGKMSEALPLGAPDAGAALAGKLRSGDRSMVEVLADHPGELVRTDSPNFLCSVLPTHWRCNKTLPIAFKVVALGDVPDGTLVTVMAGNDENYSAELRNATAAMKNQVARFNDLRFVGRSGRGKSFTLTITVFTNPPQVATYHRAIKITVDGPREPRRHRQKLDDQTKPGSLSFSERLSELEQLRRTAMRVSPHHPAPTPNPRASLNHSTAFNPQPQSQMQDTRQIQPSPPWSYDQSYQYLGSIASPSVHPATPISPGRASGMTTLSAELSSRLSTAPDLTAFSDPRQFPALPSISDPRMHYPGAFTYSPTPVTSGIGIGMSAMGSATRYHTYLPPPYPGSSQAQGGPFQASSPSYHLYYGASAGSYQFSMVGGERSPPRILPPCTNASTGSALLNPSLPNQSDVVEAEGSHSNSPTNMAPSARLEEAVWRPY
Chain of Runt-related transcription factor 1/Core-binding factor subunit beta (Q13951 whole entry, the tested form may be a part): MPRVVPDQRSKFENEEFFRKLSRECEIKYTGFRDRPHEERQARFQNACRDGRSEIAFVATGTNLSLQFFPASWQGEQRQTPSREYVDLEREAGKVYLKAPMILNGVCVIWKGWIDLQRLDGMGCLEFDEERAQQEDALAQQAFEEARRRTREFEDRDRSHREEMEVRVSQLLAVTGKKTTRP

Large T antigen = Large T antigen (Simian virus 40, UniProt P03070); format: functional, Betapolyomavirus macacae;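 also: Confirmatory-stage PubChem screen for compounds that inhibit SV40 T antigen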
[4] = biological target: T2, Ubiquitin-conjugating enzyme E2 N (Homo sapiens, UniProt P61088); format: functional;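 also: Dose-response confirmation in a TR-FRET assay detecting UBC13-driven polyubiquitin chain formation, inhibition measured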
T2 sequence (P61088 whole entry): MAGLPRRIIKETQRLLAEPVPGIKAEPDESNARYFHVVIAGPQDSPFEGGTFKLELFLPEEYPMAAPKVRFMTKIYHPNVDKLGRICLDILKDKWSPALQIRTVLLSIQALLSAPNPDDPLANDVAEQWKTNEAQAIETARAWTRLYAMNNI

[5] = biological target: Heat shock 70 kDa protein 1A (Homo sapiens, UniProt P0DMV8); test: inhibition of Hsp70 binding activity – biochemical, fluorescence polarization, SAR follow-up (AID 1072)
[6] = biological target: Ribosomal protein S6 kinase alpha-3 (Homo sapiens, UniProt P51812); format: functional;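 also: measured within a kinome-wide profiling panel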
Chain of Ribosomal protein S6 kinase alpha-3 (P51812 whole entry): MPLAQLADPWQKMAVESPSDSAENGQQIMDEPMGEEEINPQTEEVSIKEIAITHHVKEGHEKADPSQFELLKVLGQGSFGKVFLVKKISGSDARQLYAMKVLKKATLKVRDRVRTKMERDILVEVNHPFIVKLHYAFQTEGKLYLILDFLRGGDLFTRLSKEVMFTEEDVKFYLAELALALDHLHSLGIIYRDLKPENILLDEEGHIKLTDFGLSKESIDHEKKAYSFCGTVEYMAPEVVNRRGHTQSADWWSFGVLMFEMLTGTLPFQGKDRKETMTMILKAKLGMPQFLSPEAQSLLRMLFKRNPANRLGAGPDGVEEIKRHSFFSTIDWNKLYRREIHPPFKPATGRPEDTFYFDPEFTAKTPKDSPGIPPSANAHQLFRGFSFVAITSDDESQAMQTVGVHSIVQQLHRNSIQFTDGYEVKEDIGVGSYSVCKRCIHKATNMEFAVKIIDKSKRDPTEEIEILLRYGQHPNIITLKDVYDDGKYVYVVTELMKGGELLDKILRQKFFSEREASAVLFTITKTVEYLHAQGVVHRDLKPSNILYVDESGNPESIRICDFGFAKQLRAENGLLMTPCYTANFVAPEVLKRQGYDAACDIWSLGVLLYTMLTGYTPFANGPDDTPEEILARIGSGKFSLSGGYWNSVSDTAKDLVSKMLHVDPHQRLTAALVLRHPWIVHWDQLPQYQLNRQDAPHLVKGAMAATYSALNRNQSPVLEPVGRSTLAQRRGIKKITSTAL

[7] = biological target: 5'-AMP-activated protein kinase catalytic subunit alpha-1 (Homo sapiens, UniProt Q13131); format: functional
Chain of 5'-AMP-activated protein kinase catalytic subunit alpha-1 (Q13131 whole entry): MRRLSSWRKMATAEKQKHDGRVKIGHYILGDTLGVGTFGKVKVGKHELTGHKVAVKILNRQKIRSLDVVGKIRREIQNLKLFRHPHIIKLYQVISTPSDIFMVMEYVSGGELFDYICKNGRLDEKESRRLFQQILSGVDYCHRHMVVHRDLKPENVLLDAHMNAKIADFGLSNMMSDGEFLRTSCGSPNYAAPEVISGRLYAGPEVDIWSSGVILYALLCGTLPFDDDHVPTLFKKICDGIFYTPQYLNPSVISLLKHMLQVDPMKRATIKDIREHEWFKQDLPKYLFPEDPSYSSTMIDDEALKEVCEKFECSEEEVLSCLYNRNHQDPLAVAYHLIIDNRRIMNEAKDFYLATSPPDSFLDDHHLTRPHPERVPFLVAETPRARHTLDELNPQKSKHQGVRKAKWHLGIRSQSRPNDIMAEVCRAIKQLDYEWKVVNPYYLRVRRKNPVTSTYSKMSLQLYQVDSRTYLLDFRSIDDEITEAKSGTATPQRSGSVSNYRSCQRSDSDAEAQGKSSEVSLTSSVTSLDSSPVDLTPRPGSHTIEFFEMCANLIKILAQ

[8] = biological target: Inhibitor of nuclear factor kappa-B kinase subunit epsilon (Homo sapiens, UniProt Q14164); test: Navigating the Kinome. Panel member name: IKBKE; format: functional
Chain of Inhibitor of nuclear factor kappa-B kinase subunit epsilon (Q14164 whole entry): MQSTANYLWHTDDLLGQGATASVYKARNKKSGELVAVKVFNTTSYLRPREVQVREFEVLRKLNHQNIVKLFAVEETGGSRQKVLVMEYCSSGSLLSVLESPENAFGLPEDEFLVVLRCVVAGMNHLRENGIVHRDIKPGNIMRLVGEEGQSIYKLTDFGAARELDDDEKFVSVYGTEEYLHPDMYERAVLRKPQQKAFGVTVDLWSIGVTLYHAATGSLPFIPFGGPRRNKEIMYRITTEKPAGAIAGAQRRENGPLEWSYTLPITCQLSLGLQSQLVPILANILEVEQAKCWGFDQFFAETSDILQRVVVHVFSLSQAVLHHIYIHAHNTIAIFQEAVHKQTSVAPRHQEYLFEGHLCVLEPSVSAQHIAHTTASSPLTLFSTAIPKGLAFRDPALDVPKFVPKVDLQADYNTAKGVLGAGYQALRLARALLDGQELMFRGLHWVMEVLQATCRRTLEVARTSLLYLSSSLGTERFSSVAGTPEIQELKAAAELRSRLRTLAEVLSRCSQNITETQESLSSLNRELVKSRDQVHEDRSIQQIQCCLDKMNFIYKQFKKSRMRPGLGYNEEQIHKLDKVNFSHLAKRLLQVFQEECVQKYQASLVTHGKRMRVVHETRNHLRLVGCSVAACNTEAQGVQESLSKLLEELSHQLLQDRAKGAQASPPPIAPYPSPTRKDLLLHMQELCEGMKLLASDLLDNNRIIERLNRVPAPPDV

[9] = biological target: Calcium/calmodulin-dependent protein kinase type II subunit alpha (Homo sapiens, UniProt Q9UQM7); test: Navigating the Kinome. Panel member name: CAMK2A; format: functional
[10] = biological target: cAMP-dependent protein kinase catalytic subunit PRKX (Homo sapiens, UniProt P51817); format: functional
[11] = biological target: Vascular endothelial growth factor receptor 1 (Homo sapiens, UniProt P17948); format: functional;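 also: measured within a kinome-wide profiling panel, FLT1 as the panel member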
Chain of Vascular endothelial growth factor receptor 1 (P17948 whole entry, the tested form may be a part): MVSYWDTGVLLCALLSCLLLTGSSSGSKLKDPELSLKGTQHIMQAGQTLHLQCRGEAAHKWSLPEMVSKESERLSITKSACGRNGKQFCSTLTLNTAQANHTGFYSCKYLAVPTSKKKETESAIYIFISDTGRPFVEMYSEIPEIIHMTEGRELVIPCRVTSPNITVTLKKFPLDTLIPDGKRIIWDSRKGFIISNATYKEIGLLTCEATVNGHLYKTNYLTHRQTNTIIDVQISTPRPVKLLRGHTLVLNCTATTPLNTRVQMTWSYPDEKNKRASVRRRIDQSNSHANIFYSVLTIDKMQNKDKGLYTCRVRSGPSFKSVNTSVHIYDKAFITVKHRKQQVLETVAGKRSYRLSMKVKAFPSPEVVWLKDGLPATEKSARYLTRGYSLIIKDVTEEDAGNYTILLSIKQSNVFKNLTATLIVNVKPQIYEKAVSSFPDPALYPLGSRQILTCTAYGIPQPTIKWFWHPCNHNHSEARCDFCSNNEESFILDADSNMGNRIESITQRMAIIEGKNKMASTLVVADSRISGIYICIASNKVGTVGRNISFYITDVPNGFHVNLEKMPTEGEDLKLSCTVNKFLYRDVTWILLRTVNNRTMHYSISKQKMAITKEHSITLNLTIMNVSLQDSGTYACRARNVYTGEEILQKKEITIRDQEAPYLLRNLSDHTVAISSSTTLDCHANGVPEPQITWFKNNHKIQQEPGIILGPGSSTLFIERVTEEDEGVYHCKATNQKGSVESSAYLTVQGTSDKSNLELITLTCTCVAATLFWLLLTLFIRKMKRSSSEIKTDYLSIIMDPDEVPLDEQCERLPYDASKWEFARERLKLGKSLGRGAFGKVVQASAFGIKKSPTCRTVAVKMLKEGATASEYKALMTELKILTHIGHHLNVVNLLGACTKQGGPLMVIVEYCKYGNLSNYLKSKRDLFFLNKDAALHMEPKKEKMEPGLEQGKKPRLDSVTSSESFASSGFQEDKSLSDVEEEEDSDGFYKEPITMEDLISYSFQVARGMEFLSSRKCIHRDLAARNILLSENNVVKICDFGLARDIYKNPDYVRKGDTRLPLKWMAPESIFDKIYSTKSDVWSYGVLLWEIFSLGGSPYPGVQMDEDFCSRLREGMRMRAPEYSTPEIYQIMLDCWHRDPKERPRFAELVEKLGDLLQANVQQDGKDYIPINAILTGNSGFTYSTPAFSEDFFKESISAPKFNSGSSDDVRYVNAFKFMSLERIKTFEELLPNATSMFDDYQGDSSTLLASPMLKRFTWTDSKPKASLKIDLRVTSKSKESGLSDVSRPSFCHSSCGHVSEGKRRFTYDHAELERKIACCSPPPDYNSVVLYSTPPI

LIM domain kinase 1 = LIM domain kinase 1 (Homo sapiens, UniProt P53667); test: Navigating the Kinome. Panel member name: LIMK1; format: functional
Activin receptor type-1 = Activin receptor type-1 (Homo sapiens, UniProt Q04771); test: Navigating the Kinome. Panel member name: ACVR1; format: functional
Chain of Activin receptor type-1 (Q04771 whole entry): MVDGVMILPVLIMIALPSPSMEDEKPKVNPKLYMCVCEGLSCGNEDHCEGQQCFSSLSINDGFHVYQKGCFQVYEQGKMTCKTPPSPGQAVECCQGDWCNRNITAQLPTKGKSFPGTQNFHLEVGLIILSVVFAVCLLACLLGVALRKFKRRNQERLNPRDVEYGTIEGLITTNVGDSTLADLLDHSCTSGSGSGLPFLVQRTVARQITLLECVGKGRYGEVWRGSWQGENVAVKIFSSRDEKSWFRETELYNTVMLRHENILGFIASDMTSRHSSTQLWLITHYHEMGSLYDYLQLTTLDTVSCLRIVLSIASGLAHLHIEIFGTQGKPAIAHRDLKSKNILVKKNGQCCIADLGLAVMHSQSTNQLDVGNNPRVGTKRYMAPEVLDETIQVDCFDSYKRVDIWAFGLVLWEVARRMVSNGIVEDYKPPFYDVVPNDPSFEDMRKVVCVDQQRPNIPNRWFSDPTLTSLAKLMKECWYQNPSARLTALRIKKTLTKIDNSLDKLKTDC

[12] = biological target: Platelet-derived growth factor receptor beta (Homo sapiens, UniProt P09619); format: functional;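 also: value comes from a kinome panel, with PDGFRB tested as one panel member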
[13] = biological target: T3, Heat shock factor protein 1 (Mus musculus, UniProt P38532); test: decrease of HSF1-responsive luciferase luminescence – cell-based, NIH3T3, dose retest, confirmation (AID 2382); format: functional;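 also: NIH3T3 fibroblasts with HSF1-driven luciferase reporter stressed by proteasome inhibitor MG132; luminescence from HSF1-driven luciferase expression after 8 hours of MG132 stress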
T3 sequence (P38532 whole entry): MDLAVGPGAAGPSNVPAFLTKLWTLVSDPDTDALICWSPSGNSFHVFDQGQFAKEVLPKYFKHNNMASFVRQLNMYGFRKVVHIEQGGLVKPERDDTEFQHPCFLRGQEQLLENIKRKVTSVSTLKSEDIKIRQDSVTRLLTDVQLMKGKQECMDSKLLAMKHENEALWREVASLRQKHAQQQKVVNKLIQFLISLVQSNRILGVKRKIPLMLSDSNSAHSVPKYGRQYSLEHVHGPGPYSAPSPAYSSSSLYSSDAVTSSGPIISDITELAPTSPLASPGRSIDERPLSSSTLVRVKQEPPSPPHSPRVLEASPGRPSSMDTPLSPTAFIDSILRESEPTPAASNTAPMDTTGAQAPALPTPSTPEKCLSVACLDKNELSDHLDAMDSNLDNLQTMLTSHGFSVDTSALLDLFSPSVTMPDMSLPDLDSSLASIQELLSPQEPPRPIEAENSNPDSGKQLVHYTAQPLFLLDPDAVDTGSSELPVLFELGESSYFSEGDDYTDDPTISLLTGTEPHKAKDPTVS

[14] = HEK-293T viability loss after treatment – luminescence, T-cell screen hits, cytotoxicity control for TCR NF-kB inhibitor project, dose response (AID 489026); format: functional, cell-based;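 also: cells exposed to compound about 14 hours before the viability readout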
Beta-galactosidase = Beta-galactosidase (Escherichia coli, UniProt Q8VNN2); test: detection-enzyme interference by beta-gal modulators – biochemical, E. coli enzyme, set 3, artefact control for CCR6 antagonist project, dose response (AID 504712); format: functional
BJ = test: cells; format: functional, cell-based; conditions: Homo sapiens
[15] = bead-based luminescence quenchers, dual-tagged ARNT – biochemical, AlphaScreen, cherry-pick, artefact control for ARNT-TACC3 interaction inhibitor project, dose response (AID 651705); format: functional;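 also: AlphaScreen bead proximity signal that flags compounds interfering with the detection technology; potency reflects signal decrease which marks the compound as an assay artifact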
[16] = biological target: Serine/threonine-protein kinase pim-3 (Homo sapiens, UniProt Q86V86); format: functional;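 also: value obtained as one member of a broad kinase panel profiling effort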
[17] = biological target: Tyrosine-protein kinase Fer (Homo sapiens, UniProt P16591); format: functional;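 also: FER tested as one member of a kinome panel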
[18] = biological target: Interleukin-1 receptor-associated kinase 4 (Homo sapiens, UniProt Q9NWZ3); format: functional
[19] = biological target: Tyrosine-protein kinase receptor UFO (Homo sapiens, UniProt P30530); format: functional
[20] = biological target: MAP kinase-activated protein kinase 5 (Homo sapiens, UniProt Q8IW41); format: functional;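 also: measured as one member of a kinome panel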
Chain of MAP kinase-activated protein kinase 5 (Q8IW41 whole entry): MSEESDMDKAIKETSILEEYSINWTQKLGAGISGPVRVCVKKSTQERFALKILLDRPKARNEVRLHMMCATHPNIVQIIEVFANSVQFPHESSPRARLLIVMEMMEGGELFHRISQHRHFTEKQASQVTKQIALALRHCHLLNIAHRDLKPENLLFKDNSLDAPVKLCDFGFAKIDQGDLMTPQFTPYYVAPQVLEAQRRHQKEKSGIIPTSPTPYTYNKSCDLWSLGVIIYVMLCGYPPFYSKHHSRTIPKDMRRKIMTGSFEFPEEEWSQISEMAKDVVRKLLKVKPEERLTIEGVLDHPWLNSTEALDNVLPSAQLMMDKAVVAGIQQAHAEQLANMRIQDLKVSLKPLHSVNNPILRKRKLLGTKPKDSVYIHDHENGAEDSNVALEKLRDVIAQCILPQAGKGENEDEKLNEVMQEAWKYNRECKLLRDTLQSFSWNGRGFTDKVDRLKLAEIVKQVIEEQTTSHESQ

Insulin receptor = Insulin receptor (Homo sapiens, UniProt P06213); format: functional;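 also: insulin receptor kinase tested as one member of a kinome-wide kinase panel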
[21] = biological target: Protein kinase C iota type (Homo sapiens, UniProt P41743); format: functional;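 also: measured within a kinome-wide kinase panel, PRKCI as panel member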
[22] = biological target: Rho-associated protein kinase 2 (Homo sapiens, UniProt O75116); format: functional

With `O=C1/C(=C\c2cccc(O)c2O)SC(=S)N1Cc1ccccc1` as the compound, how does the AC50 [1] read?
Its AC50 is 13.4 µM (active).

For `COc1cccc2c1NC(C(=O)O)C1CC=CC21` (stereo not given), which IC50 (Bcl-2-related protein A1) is on record?
The IC50 was 1.1 µM (active).

And the IC50 [2]?
Its IC50 is > 100 µM (active).

And the IC50 [3]?
The IC50 was 15.4 µM (active).

What about the IC50 (Large T antigen) of the same compound?
Its IC50 is 42.5 µM (active).

And the IC50 [4]?
The IC50 was 19.1 µM (active).

And the IC50 [5]?
The IC50 was 6.26 µM (active).

Which results are given for `COc1c(-c2nc3ccccc3[nH]2)c(O)cc2oc(C)cc(=O)c12`?
Ki [6]: 0.794 µM (active); Ki [7]: 0.794 µM (active); Ki [8]: 2 µM (active); Ki [9]: 1 µM (active); Ki [10]: > 3.16 µM (inactive); Ki [11]: 2 µM (active); Ki (LIM domain kinase 1): 0.0316 µM (active); Ki (Activin receptor type-1): 1.26 µM (active)

For `COC(=O)c1c(N)nc2ccccn12`, which Ki [12] is on record?
Its Ki is > 79.4 µM (inactive).

And the Ki (Activin receptor type-1)?
The Ki was 50.1 µM (active).

Which EC50 [13] does the source give for `CCc1ccc(S(=O)(=O)/N=C2\C=C(Nc3ccc(O)cc3)C(=O)c3ccccc32)cc1` here?
Its EC50 is 1.16 µM (active).

What about the IC50 [14] of the same compound?
The IC50 was 3.96 µM (active).

What about the IC50 (Beta-galactosidase) of the same compound?
The IC50 was 41.3 µM (inactive).

And the EC50 (BJ)?
Its EC50 is 2.96 µM (active).

Which AC50 [15] does the source give for `Cc1cc([N+](=O)[O-])cc(/C=N\NC(=O)C2COc3ccccc3O2)c1O` (stereo not given) here?
The AC50 was 93.6 µM (active).

For `Cc1ccc(F)c(NC(=O)Nc2ccc(-c3cccc4[nH]nc(N)c34)cc2)c1` [LINIFANIB], which Ki [16] is on record?
The Ki was > 7.94 µM (inactive).

What about the Ki [17] of the same compound?
The Ki was 0.501 µM (active).

What about the Ki [18] of the same compound?
The Ki was 2.51 µM (active).

What about the Ki [19] of the same compound?
The Ki was 0.126 µM (active).

What about the Ki [20] of the same compound?
The Ki was > 1.58 µM (inactive).

What about the Ki (Insulin receptor) of the same compound?
Its Ki is 0.794 µM (active).

What about the Ki [21] of the same compound?
The Ki was > 5.01 µM (inactive).

What about the pKi [22] of the same compound?
The pKi was 5.6.
